Measured values taken from ChEMBL document CHEMBL5576052, “Design, synthesis, and biological evaluation of new bis-benzylisoquinoline-based analogues as potential neuromuscular blocking agents” (Bioorg Med Chem Lett, 2024).

Columns and labels:
Assay type in all cases: functional
Oryctolagus cuniculus [1] = assay: Neuromuscular blocking in rabbit model of propofol-induced anesthesia assessed as maximal blockade at 27.27 nmol/kg by train-of-four response method relative to control
Oryctolagus cuniculus [2] = assay: Neuromuscular blocking in rabbit model of propofol-induced anesthesia assessed as onset time at 272.7 nmol/kg by train-of-four response method
Oryctolagus cuniculus [3] = assay: Neuromuscular blocking in rabbit model of propofol-induced anesthesia assessed as time duration of 25 to 75 percent recovery indices at 272.7 nmol/kg by train-of-four response method
Oryctolagus cuniculus [4] = assay: Neuromuscular blocking in rabbit model of propofol-induced anesthesia assessed as time duration of 25 to 90 percent recovery indices at 272.7 nmol/kg by train-of-four response method
Oryctolagus cuniculus [5] = assay: Neuromuscular blocking in rabbit model of propofol-induced anesthesia assessed as effective blocking time by measuring duration from administration to 25 percent recovery at 272.7 nmol/kg by train-of-four response method
Oryctolagus cuniculus [6] = assay: Neuromuscular blocking in rabbit model of propofol-induced anesthesia assessed as time duration of 25 to 75 percent recovery indices at 27.27 nmol/kg by train-of-four response method
Oryctolagus cuniculus [7] = assay: Neuromuscular blocking in rabbit model of propofol-induced anesthesia assessed as onset time at 27.27 nmol/kg by train-of-four response method
Oryctolagus cuniculus [8] = assay: Neuromuscular blocking in rabbit model of propofol-induced anesthesia assessed as effective blocking time by measuring duration from administration to 25 percent recovery at 27.27 nmol/kg by train-of-four response method
Oryctolagus cuniculus [9] = assay: Neuromuscular blocking in rabbit model of propofol-induced anesthesia assessed as maximal blockade at 272.7 nmol/kg by train-of-four response method relative to control
Oryctolagus cuniculus [10] = assay: Neuromuscular blocking in rabbit model of propofol-induced anesthesia assessed as time duration of 25 to 90 percent recovery indices at 27.27 nmol/kg by train-of-four response method
Oryctolagus cuniculus [11] = assay: Neuromuscular blocking in rabbit model of propofol-induced anesthesia assessed as duration of time for maximal blockade at 27.27 nmol/kg by train-of-four response method
Oryctolagus cuniculus [12] = assay: Neuromuscular blocking in rabbit model of propofol-induced anesthesia assessed as duration of time for maximal blockade at 272.7 nmol/kg by train-of-four response method
Oryctolagus cuniculus [13] = assay: Neuromuscular blocking in rabbit model of propofol-induced anesthesia assessed as time duration of 75 to 90 percent recovery indices at 0.06 mg/kg of inductive dose with continuous infusion of compound measured for 1 hr by train-of-four response method
Oryctolagus cuniculus [14] = assay: Neuromuscular blocking in rabbit model of propofol-induced anesthesia assessed as time duration of 25 to 75 percent recovery indices at 0.06 mg/kg of inductive dose with continuous infusion of compound measured for 0.5 hrs by train-of-four response method
Oryctolagus cuniculus [15] = assay: Neuromuscular blocking in rabbit model of propofol-induced anesthesia assessed as time duration of 25 to 75 percent recovery indices at 0.06 mg/kg of inductive dose with continuous infusion of compound measured for 1 hr by train-of-four response method
Oryctolagus cuniculus [16] = assay: Neuromuscular blocking in rabbit model of propofol-induced anesthesia assessed as time duration of 25 to 90 percent recovery indices at 0.06 mg/kg of inductive dose with continuous infusion of compound measured for 0.5 hrs by train-of-four response method
Oryctolagus cuniculus [17] = assay: Neuromuscular blocking in rabbit model of propofol-induced anesthesia assessed as time duration of 25 to 90 percent recovery indices at 0.06 mg/kg of inductive dose with continuous infusion of compound measured for 1 hr by train-of-four response method
Oryctolagus cuniculus [18] = assay: Neuromuscular blocking in rabbit model of propofol-induced anesthesia assessed as time duration of 75 to 90 percent recovery indices at 0.06 mg/kg of inductive dose with continuous infusion of compound measured for 0.5 hrs by train-of-four response method

Row | SMILES | Emax at 0.02727 µmol/kg (Oryctolagus cuniculus [1]) [%] | Time (Oryctolagus cuniculus [2]) [min] | Time (Oryctolagus cuniculus [3]) [min] | Time (Oryctolagus cuniculus [4]) [min] | Time (Oryctolagus cuniculus [5]) [min] | Time (Oryctolagus cuniculus [6]) [min] | Time (Oryctolagus cuniculus [7]) [min] | Time (Oryctolagus cuniculus [8]) [min] | Emax at 0.2727 µmol/kg (Oryctolagus cuniculus [9]) [%] | Time (Oryctolagus cuniculus [10]) [min] | Time (Oryctolagus cuniculus [11]) [min] | Time (Oryctolagus cuniculus [12]) [min] | Time (Oryctolagus cuniculus [13]) [min] | Time (Oryctolagus cuniculus [14]) [min] | Time (Oryctolagus cuniculus [15]) [min] | Time (Oryctolagus cuniculus [16]) [min] | Time (Oryctolagus cuniculus [17]) [min] | Time (Oryctolagus cuniculus [18]) [min]
1 | COc1cc2c(cc1OC)[C@@H](Cc1cc(OC)c(OC)c(OC)c1)[N+](C)(CCCOC(=O)CCCCC(=O)OCCC[N+]1(C)CCc3cc(OC)c(OC)cc3[C@H]1Cc1cc(OC)c(OC)c(OC)c1)CC2.[Cl-].[Cl-] (stereo partly drawn) | 100 | 0.63 | 6.38 | 8.13 | 38 | 9.67 | 2.75 | 5.17 | 100 | 11.67 | 2 | 35 |  |  |  |  |  | 
2 | COc1cc2c(cc1OC)[C@@H](Cc1cc(OC)c(OC)c(OC)c1)[N+](C)(CCC(=O)OCCCOC(=O)CC[N+]1(C)CCc3cc(OC)c(OC)cc3[C@H]1Cc1cc(OC)c(OC)c(OC)c1)CC2.O=S(=O)([O-])c1ccccc1.O=S(=O)([O-])c1ccccc1 (stereo partly drawn) |  | 1.08 | 7.92 | 9.83 | 9.75 |  |  |  | 100 |  |  | 7.58 |  |  |  |  |  | 
3 | C=CC[N@+]1(CCCOC(=O)CC/C=C/CCC(=O)OCCC[N@@+]2(CC=C)CCc3cc(OC)c(OC)cc3[C@H]2Cc2cc(OC)c(OC)c(OC)c2)CCc2cc(OC)c(OC)cc2[C@H]1Cc1cc(OC)c(OC)c(OC)c1.[Cl-].[Cl-] |  | 1.42 | 13.25 | 21.83 | 6.92 |  |  |  | 100 |  |  | 4.75 |  |  |  |  |  | 
4 | COc1cc2c(cc1OC)[C@@H](Cc1cc(OC)c(OC)c(OC)c1)[N+](CCCOC(=O)CC/C=C/CCC(=O)OCCC[N+]1(CC3CC3)CCc3cc(OC)c(OC)cc3[C@H]1Cc1cc(OC)c(OC)c(OC)c1)(CC1CC1)CC2.[Cl-].[Cl-] (stereo partly drawn) |  | 1.25 | 6.83 | 9.58 | 5.17 |  |  |  | 100 |  |  | 3.67 |  |  |  |  |  | 
5 | COc1cc2c(cc1OC)[C@@H](Cc1cc(OC)c(OC)c(OC)c1)[N@@+](C)(CCCOC(=O)CC/C=C/CCC(=O)OCCC[N@+]1(C)CCc3cc(OC)c(OC)cc3[C@H]1Cc1cc(OC)c(OC)c(OC)c1)CC2.[Cl-].[Cl-] (mixture of isomers) | 80 | 0.83 | 10.5 | 13.42 | 24.5 | 4.92 | 3.58 |  | 100 | 8.92 | 1.92 | 21.42 | 5.33 | 6.9 | 7.08 | 11.1 | 12.42 | 4.2
6 | CC[N@+]1(CCCOC(=O)CC/C=C/CCC(=O)OCCC[N@@+]2(CC)CCc3cc(OC)c(OC)cc3[C@H]2Cc2cc(OC)c(OC)c(OC)c2)CCc2cc(OC)c(OC)cc2[C@H]1Cc1cc(OC)c(OC)c(OC)c1.[Cl-].[Cl-] |  | 1.08 | 10.58 | 15.25 | 14.67 |  |  |  | 100 |  |  | 11.58 |  |  |  |  |  | 
